From ChEMBL document CHEMBL5506024, “Multitarget μ-Opioid Receptor Agonists─Neuropeptide FF Receptor Antagonists Induce Potent Antinociception with Reduced Adverse Side Effects” (J Med Chem, 2024)
Activity calls are given as the source filed them. No cut-off for these calls is given here.

Experiments:
Mu-type opioid receptor [1] = target: T1, Mu-type opioid receptor (Homo sapiens, UniProt P35372); assay: Agonist activity at human MOP expressed in HEK293 cells coexpressing GloSensor-20F assessed as inhibition of forskolin-induced cAMP accumulation; assay type: functional, cell-based
T1 sequence (P35372 whole entry): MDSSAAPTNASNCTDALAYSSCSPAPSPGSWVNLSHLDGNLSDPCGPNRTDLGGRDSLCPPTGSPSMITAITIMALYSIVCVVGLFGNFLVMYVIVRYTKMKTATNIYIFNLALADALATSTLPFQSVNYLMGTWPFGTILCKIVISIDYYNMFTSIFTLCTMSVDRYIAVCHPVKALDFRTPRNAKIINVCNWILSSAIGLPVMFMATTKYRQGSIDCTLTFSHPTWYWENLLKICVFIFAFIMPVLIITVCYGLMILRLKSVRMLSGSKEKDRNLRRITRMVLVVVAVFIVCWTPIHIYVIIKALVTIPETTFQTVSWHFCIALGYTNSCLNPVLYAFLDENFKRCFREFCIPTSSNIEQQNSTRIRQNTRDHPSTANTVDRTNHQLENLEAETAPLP

Mu-type opioid receptor [2] = target: T1, Mu-type opioid receptor; assay: Agonist activity at human MOP expressed in HEK293 cells coexpressing GloSensor-20F assessed as inhibition of forskolin-induced cAMP accumulation relative to control; assay type: functional, cell-based; settings: filed as agonist
Mu-type opioid receptor [3] = target: T1, Mu-type opioid receptor; assay: Agonist activity at human Rluc8-tagged MOP expressed in HEK293 cells coexpressing eYFP-tagged beta-arrestin-2 assessed as beta-arrestin-2 recruitment incubated for 5 mins by luminometer analysis; assay type: functional, cell-based; settings: read-out: EC50
Mu-type opioid receptor [4] = target: T1, Mu-type opioid receptor; assay: Agonist activity at human Rluc8-tagged MOP expressed in HEK293 cells coexpressing eYFP-tagged beta-arrestin-2 assessed as beta-arrestin-2 recruitment incubated for 5 mins by luminometer analysis relative to control; assay type: functional, cell-based
[5] = Induction of naltrexone-precipitated withdrawal syndrome in sc dosed C57BL/6N mouse assessed as diarrhea administered for 8 days followed by naltrexone addition on day 9 after 2 hrs post last dose and measured after 30 mins; assay type: toxicity, organism-based; settings: in vivo, 216.5 h, time 12990 min
[6] = target: T2, Neuropeptide FF receptor 1 (Homo sapiens, UniProt Q9GZQ6); assay: Displacement of [125I]-1DMeNPFF from human NPFFR1 expressed in CHO cell membrane at 0.5 uM incubated for 1 hr by Topcount counting method relative to control; assay type: cell membranes
T2 sequence (Q9GZQ6 whole entry): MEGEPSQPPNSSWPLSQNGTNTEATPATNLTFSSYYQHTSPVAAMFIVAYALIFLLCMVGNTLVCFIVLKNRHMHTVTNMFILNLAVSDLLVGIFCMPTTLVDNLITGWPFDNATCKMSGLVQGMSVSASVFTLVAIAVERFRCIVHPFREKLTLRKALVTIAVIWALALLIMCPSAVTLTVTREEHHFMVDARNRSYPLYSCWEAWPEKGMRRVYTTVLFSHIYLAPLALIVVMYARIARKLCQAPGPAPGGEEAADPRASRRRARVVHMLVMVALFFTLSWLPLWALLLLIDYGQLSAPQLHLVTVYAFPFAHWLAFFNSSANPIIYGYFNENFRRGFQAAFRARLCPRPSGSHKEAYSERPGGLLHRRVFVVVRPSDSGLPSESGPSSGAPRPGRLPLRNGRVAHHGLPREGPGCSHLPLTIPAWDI

[7] = target: T2, Neuropeptide FF receptor 1; assay: Antagonist activity at human NPFFR1 expressed in CHO cell membrane assessed as inhibition of NPVF induced cAMP response at 5 uM incubated for 1 hr by Topcount counting method relative to control; assay type: functional, cell membranes; parameters: scale not given: the % may be the effect or the level left
[8] = target: T3, Neuropeptide FF receptor 2 (Homo sapiens, UniProt Q9Y5X5); assay: Displacement of [125I]-1DMeNPFF from human NPFFR2 expressed in CHO cell membrane at 0.05 uM incubated for 1 hr by Topcount counting method relative to control; assay type: cell membranes; settings: filed as antagonist
T3 sequence (Q9Y5X5 whole entry): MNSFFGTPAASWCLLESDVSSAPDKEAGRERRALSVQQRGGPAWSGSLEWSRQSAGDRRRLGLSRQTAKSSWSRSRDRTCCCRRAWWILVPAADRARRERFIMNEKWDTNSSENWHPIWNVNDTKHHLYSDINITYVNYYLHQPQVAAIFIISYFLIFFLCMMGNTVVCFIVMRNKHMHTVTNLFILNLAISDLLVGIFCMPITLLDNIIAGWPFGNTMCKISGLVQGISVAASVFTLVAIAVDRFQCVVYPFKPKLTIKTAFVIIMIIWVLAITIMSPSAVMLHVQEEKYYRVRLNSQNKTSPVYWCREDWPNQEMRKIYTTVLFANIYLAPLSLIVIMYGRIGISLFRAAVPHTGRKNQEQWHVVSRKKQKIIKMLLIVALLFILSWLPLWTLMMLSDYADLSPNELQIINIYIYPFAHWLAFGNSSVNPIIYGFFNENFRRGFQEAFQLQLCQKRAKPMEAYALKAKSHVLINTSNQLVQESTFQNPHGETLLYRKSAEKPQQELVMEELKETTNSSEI

[9] = target: T3, Neuropeptide FF receptor 2; assay: Antagonist activity at human NPFFR2 expressed in CHO cell membrane assessed as inhibition of NPVF induced cAMP response at 5 uM incubated for 1 hr by Topcount counting method relative to control; assay type: functional, cell membranes; parameters: scale not given: the % may be the effect or the level left; settings: filed as antagonist
[10] = target: T2, Neuropeptide FF receptor 1; assay: Displacement of [125I]-1DMeNPFF from human NPFFR1 expressed in CHO cell membrane incubated for 1 hr by Topcount counting method; assay type: cell membranes
[11] = target: T2, Neuropeptide FF receptor 1; assay: Antagonist potency at human NPFFR1 expressed in CHO cell membrane assessed as inhibition of NPVF induced cAMP response incubated for 1 hr by Topcount counting method; assay type: functional, cell membranes; settings: read-out: pA2 (converted)
[12] = target: T3, Neuropeptide FF receptor 2; assay: Displacement of [125I]-1DMeNPFF from human NPFFR2 expressed in CHO cell membrane incubated for 1 hr by Topcount counting method; assay type: cell membranes
[13] = target: T3, Neuropeptide FF receptor 2; assay: Antagonist potency at human NPFFR2 expressed in CHO cell membrane assessed as inhibition of NPVF induced cAMP response incubated for 1 hr by Topcount counting method; assay type: functional, cell membranes; settings: read-out: pA2 (converted)
[14] = target: Delta-type opioid receptor (Homo sapiens) (UniProt P41143); assay: Agonist activity at human DOP expressed in HEK293 cells assessed as inhibition of forskolin-induced cAMP accumulation; assay type: functional, cell-based; settings: filed as agonist
Chain of Delta-type opioid receptor (Homo sapiens) (P41143 whole entry): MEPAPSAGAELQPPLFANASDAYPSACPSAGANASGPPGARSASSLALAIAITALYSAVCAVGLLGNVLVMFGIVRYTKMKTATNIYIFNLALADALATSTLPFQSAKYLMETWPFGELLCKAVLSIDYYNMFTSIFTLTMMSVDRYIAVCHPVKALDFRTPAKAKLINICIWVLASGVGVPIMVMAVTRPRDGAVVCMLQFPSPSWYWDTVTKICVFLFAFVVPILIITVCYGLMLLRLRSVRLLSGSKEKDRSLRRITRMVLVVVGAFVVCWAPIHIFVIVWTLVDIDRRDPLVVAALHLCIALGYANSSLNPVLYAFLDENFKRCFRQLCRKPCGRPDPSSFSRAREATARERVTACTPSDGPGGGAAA

[15] = target: Kappa-type opioid receptor (Homo sapiens, UniProt P41145); assay: Partial agonist activity at human KOR expressed in HEK293 cells assessed as forskolin-induced cAMP accumulation in presence of IBMX; assay type: functional, cell-based; settings: filed as partial agonist
Chain of Kappa-type opioid receptor (P41145 whole entry): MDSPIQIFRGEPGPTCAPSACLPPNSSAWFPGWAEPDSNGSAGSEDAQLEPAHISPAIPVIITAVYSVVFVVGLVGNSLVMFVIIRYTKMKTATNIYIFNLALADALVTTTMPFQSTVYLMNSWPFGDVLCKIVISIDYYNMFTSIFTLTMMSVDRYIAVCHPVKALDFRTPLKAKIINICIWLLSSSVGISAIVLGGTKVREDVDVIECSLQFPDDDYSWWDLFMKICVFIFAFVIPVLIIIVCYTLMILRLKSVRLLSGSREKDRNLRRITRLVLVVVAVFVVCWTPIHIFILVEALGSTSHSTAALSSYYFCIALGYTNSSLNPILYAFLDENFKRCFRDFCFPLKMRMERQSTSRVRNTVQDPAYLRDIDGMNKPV

[16] = target: Nociceptin receptor (Homo sapiens) (UniProt P41146); assay: Antagonist activity at human NOR expressed in HEK293 cells assessed as forskolin-induced cAMP accumulation in presence of IBMX; assay type: functional, cell-based; settings: filed as antagonist
Chain of Nociceptin receptor (Homo sapiens) (P41146 whole entry): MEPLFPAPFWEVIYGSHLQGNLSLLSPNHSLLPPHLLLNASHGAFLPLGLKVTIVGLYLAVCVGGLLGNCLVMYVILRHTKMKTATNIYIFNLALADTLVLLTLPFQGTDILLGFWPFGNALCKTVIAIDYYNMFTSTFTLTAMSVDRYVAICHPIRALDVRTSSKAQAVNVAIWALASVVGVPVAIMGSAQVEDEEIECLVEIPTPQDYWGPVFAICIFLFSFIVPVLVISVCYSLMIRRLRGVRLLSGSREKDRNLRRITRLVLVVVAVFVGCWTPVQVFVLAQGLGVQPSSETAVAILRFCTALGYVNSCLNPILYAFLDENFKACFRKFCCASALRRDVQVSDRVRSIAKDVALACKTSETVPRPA

[17] = target: T4, Prolactin-releasing peptide receptor (Homo sapiens) (UniProt P49683); assay: Agonist activity at human GPR10 expressed in CHO cells assessed as intracellular calcium release upto 10 uM by Fluo-4 AM dye based calcium mobilization assay; assay type: functional, cell-based
T4 sequence (whole entry): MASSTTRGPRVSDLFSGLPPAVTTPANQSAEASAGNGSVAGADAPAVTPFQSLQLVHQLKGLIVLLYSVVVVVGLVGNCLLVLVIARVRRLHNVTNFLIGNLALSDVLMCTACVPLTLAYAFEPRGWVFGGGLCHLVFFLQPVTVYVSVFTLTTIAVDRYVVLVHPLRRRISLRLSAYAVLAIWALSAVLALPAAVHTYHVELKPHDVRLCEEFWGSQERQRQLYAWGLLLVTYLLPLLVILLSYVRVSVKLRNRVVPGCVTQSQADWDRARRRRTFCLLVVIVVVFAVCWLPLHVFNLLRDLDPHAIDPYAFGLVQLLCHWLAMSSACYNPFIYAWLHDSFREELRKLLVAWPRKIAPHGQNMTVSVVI

[18] = target: KiSS-1 receptor (Homo sapiens) (UniProt Q969F8); assay: Agonist activity at human GPR54 expressed in CHO cells assessed as intracellular calcium release upto 10 uM by Fluo-4 AM dye based calcium mobilization assay; assay type: functional, cell-based
Chain of KiSS-1 receptor (Homo sapiens) (Q969F8 whole entry): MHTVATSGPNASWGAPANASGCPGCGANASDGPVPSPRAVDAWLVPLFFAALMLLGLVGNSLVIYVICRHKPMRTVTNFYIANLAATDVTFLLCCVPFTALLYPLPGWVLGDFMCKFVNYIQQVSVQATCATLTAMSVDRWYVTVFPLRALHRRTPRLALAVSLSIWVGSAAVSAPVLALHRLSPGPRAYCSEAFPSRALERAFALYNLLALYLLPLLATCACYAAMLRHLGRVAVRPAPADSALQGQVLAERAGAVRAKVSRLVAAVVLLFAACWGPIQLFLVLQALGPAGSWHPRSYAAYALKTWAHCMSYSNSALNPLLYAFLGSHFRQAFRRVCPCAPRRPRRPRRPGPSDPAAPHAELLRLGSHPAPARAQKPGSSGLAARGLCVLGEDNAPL

[19] = target: T5, Pyroglutamylated RF-amide peptide receptor (Homo sapiens) (UniProt Q96P65); assay: Agonist activity at human GPR103 expressed in CHO cells assessed as intracellular calcium release upto 10 uM by Fluo-4 AM dye based calcium mobilization assay; assay type: functional, cell-based
T5 sequence (whole entry): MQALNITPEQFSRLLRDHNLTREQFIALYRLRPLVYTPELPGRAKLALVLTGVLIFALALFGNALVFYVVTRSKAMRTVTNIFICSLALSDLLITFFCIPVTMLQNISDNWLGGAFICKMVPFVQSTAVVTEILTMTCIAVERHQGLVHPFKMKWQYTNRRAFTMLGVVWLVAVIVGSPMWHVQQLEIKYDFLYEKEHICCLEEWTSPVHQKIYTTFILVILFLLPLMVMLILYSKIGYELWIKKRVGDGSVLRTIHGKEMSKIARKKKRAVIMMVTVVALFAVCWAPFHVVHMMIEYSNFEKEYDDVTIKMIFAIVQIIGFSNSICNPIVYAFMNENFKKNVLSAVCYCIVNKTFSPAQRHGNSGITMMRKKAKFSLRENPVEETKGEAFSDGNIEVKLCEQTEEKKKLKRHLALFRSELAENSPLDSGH

[20] = target: T4, Prolactin-releasing peptide receptor (Homo sapiens); assay: Antagonist activity at human GPR10 expressed in CHO cells assessed as intracellular calcium release upto 10 uM by Fluo-4 AM dye based calcium mobilization assay; assay type: functional, cell-based
[21] = target: KiSS-1 receptor (Homo sapiens) (UniProt Q969F8); assay: Antagonist activity at human GPR54 expressed in CHO cells assessed as intracellular calcium release upto 10 uM by Fluo-4 AM dye based calcium mobilization assay; assay type: functional, cell-based
[22] = target: T5, Pyroglutamylated RF-amide peptide receptor (Homo sapiens); assay: Antagonist activity at human GPR103 expressed in CHO cells assessed as intracellular calcium release upto 10 uM by Fluo-4 AM dye based calcium mobilization assay; assay type: functional, cell-based
[23] = Cmax in mouse at 10 mg/kg, sc measured upto 24 hrs by LC-MS/MS analysis; assay type: ADME, organism-based; settings: in vivo
[24] = Tmax in mouse at 10 mg/kg, sc measured upto 24 hrs by LC-MS/MS analysis; assay type: ADME, organism-based; settings: in vivo
[25] = Half life in mouse at 10 mg/kg, sc measured upto 24 hrs by LC-MS/MS analysis; assay type: ADME, organism-based; settings: in vivo
[26] = Drug concentration in mouse plasma at 10 mg/kg, sc measured after 2 hrs by LC-MS/MS analysis; assay type: ADME, organism-based
Mus musculus [27] = assay: Antinociceptive activity in mouse at 2.5 to 10 mg/kg, sc measured after 6 hrs by tail immersion test; assay type: functional, organism-based; settings: dose 2.5-10 mg/kg
Mus musculus [28] = assay: Antinociceptive activity in mouse at 2.5 to 10 mg/kg, sc measured after 24 hrs by tail immersion test; assay type: functional, organism-based; settings: dose 2.5-10 mg/kg
Mus musculus [29] = assay: Antinociceptive activity in mouse at 4.2 umol/kg, sc administered chronically and measured on day 1; assay type: functional, organism-based; settings: dose 4.2 µmol/kg
Mus musculus [30] = assay: Antinociceptive activity in mouse at 4.2 umol/kg, sc administered chronically and measured on day 8; assay type: functional, organism-based; settings: dose 4.2 µmol/kg
Mus musculus [31] = assay: Antinociceptive activity in mouse at 4.2 umol/kg, sc administered daily and measured on day 1 and 8; assay type: functional, organism-based; settings: dose 4.2 µmol/kg
[32] = Induction of naltrexone-precipitated withdrawal syndrome in sc dosed C57BL/6N mouse assessed as paw tremor administered for 8 days followed by naltrexone addition on day 9 after 2 hrs post last dose and measured after 30 mins; assay type: toxicity, organism-based; settings: in vivo, 216.5 h, time 12990 min
[33] = Induction of naltrexone-precipitated withdrawal syndrome in sc dosed C57BL/6N mouse assessed as wet dog shake counts administered for 8 days followed by naltrexone addition on day 9 after 2 hrs post last dose and measured after 30 mins; assay type: toxicity, organism-based; settings: in vivo, 216.5 h, time 12990 min
[34] = Induction of naltrexone-precipitated withdrawal syndrome in sc dosed C57BL/6N mouse assessed as high jumping score administered for 8 days followed by naltrexone addition on day 9 after 2 hrs post last dose and measured after 30 mins; assay type: toxicity, organism-based; settings: in vivo, 216.5 h, time 12990 min
[35] = Induction of motor coordination impairment in C57BL/6 mouse at 10.5 mg/kg, sc by rotarod assay; assay type: toxicity, organism-based; settings: in vivo
[36] = Toxicity in C57BL/6N mouse assessed as induction of respiratory depression by measuring decrease in pulmonary rate at 3.2 to 31.8 mg/kg, sc by plethysmography; assay type: organism-based; settings: in vivo, dose 3.2-31.8 mg/kg

Compound: Cc1cc(O)cc(C)c1C[C@H](N)C(=O)N(C)[C@H](C)C(=O)N[C@H]1Cc2c(ccc3ccccc23)CN(CCC(=O)N[C@@H](CCCN2CCC(Cc3ccccc3)CC2)C(=O)N[C@@H](Cc2ccccc2)C(N)=O)C1=O
- EC50 (Mu-type opioid receptor [1]): 4.5 nM
- Emax (Mu-type opioid receptor [2]): 75%
- EC50 (Mu-type opioid receptor [3]): > 4000 nM
- Emax (Mu-type opioid receptor [4]): 24%
- Activity [5]: Non-Toxic
- Activity [6]: 19%
- Activity [7]: 26%
- Activity [8]: 57%
- Activity [9]: 83%
- Ki [10]: 1310 nM
- Kb [11]: 2450 nM
- Ki [12]: 32 nM
- Kb [13]: 45.7 nM
- Activity [14]: Active
- Activity [15]: Active
- Activity [16]: Active
- Activity [17]: inactive
- Activity [18]: inactive
- Activity [19]: inactive
- Activity [20]: inactive
- Activity [21]: inactive
- Activity [22]: inactive
- Cmax [23]: 805 nM
- Tmax [24]: 2.33 h
- half-life [25]: 3.3 h
- concentration at 2 h [26]: 837 nM
- Activity (Mus musculus [27]): Active
- Activity (Mus musculus [28]): Active
- Activity (Mus musculus [29]): Active
- Activity (Mus musculus [30]): inactive
- Activity (Mus musculus [31]): Active
- Activity [32]: Non-Toxic
- Activity [33]: Non-Toxic
- Activity [34]: Non-Toxic
- Activity [35]: Non-Toxic
- Activity [36]: Non-Toxic
